Measurements taken from ChEMBL document CHEMBL3758102, “Serrulatane Diterpenoid from Eremophila neglecta Exhibits Bacterial Biofilm Dispersion and Inhibits Release of Pro-inflammatory Cytokines from Activated Macrophages” (J Nat Prod, 2015).
The source made the active and inactive calls. The calls are words filed in the database; no cut-off is given here.

Columns and labels:
[1] = test system: BMDM; test: Inhibition of IL-6 production in C57Bl/6 mouse BMDM cells at 1.6 to 6.4 uM pretreated prior to LPS-stimulation measured on day 7 by ELISA; format: functional, cell-based; details: C57BI/6
[2] = test system: BMDM; test: Inhibition of IL-1beta production in C57Bl/6 mouse BMDM cells at 1.6 to 6.4 uM pretreated for 1 hr prior to ATP-stimulation by ELISA; format: functional, cell-based; details: C57BI/6
[3] = test system: BMDM; test: Inhibition of TNFalpha production in C57Bl/6 mouse BMDM cells at 1.6 to 6.4 uM pretreated prior to LPS-stimulation measured on day 7 by ELISA; format: functional, cell-based; details: C57BI/6
[4] = test system: Staphylococcus epidermidis; test: Antibiofilm activity against Staphylococcus epidermidis ATCC 35984 assessed as reduction in 12 hrs pre-established biofilm viable cell count after 20 hrs (reference value: 1.2 x 10^10 CFU/ml); format: functional
[5] = test system: Staphylococcus epidermidis; test: Antibiofilm activity against Staphylococcus epidermidis ATCC 35984 assessed as inhibition of 24 hrs pre-established biofilm formation at 0.064 umol/well after 20 hrs by visible spectrometric analysis; format: functional, organism-based
[6] = test system: Staphylococcus epidermidis; test: Antibiofilm activity against Staphylococcus epidermidis ATCC 35984 assessed as inhibition of 3 to 6 hrs pre-established biofilm formation at 0.064 umol/well after 20 hrs by safranin staining-based method; format: functional, organism-based
[7] = test system: Staphylococcus epidermidis; test: Antibiofilm activity against Staphylococcus epidermidis ATCC 35984 assessed as 6 hrs pre-established biofilm viable cell count after 20 hrs (reference value: 8.3 x 10^9 CFU/ml); format: functional
[8] = test system: Staphylococcus epidermidis; test: Antibiofilm activity against Staphylococcus epidermidis ATCC 35984 assessed as 24 hrs pre-established biofilm viable cell count after 20 hrs (reference value: 1.4 x 10^10 +/- 2.6 x 10^9 CFU/ml); format: functional
[9] = test system: Staphylococcus epidermidis; test: Antibiofilm activity against Staphylococcus epidermidis ATCC 35984 assessed as inhibition of 24 hrs pre-established biofilm formation at 0.064 umol/well after 20 hrs by safranin staining-based method; format: functional, organism-based
[10] = test system: Staphylococcus epidermidis; test: Antibacterial activity against Staphylococcus epidermidis ATCC 35984 incubated overnight by broth microdilution method; format: functional
[11] = test system: Staphylococcus epidermidis; test: Antibiofilm activity against Staphylococcus epidermidis ATCC 35984 assessed as inhibition of 12 hrs pre-established biofilm formation at 0.064 umol/well after 20 hrs by safranin staining-based method; format: functional, organism-based
[12] = test system: Staphylococcus epidermidis; test: Antibiofilm activity against Staphylococcus epidermidis ATCC 35984 assessed as 12 hrs pre-established biofilm viable cell count after 20 hrs (reference value: 1.2 x 10^10 CFU/ml); format: functional
[13] = test system: Staphylococcus epidermidis; test: Antibiofilm activity against Staphylococcus epidermidis ATCC 35984 assessed as killing of biofilm in 12 hrs pre-established biofilm at 0.064 umol/well after 20 hrs by fluorescence staining-based confocal microscopic analysis; format: functional, organism-based
[14] = test system: Staphylococcus epidermidis; test: Antibiofilm activity against Staphylococcus epidermidis ATCC 35984 assessed as inhibition of 12 hrs pre-established biofilm formation at 0.064 umol/well after 20 hrs by visible spectrometric analysis; format: functional, organism-based
[15] = test system: Staphylococcus epidermidis; test: Antibiofilm activity against Staphylococcus epidermidis ATCC 35984 assessed as 3 hrs pre-established biofilm viable cell count after 20 hrs (reference value: 1 x 10^10 CFU/ml); format: functional

## C[C@]12CCC(=O)C=C1CC[C@@H]1[C@@H]2[C@@H](O)C[C@@]2(C)[C@H]1CC[C@]2(O)C(=O)COC(=O)CCC(=O)O
[1]
  inhibition: Active
[2]
  inhibition: inactive
[3]
  inhibition: Active

## C[C@H]1COc2c(N3CCN(C)CC3)c(F)cc3c(=O)c(C(=O)O)cn1c23.C[C@H]1COc2c(N3CCN(C)CC3)c(F)cc3c(=O)c(C(=O)O)cn1c23.O [LEVOFLOXACIN]
[4]
  Activity: 7 log10CFU/ml
[5]
  inhibition: Active
[6]
  Activity: Active
[7]
  Activity: 0 CFU/ml
[8]
  Activity: 2.2 ×10⁶ CFU/ml
[9]
  Activity: inactive
[10]
  MIC: 0.66 µM
[11]
  Activity: inactive
[12]
  Activity: 8 ×10³ CFU/ml
[13]
  Activity: Active
[14]
  inhibition: Active
[15]
  Activity: 0 CFU/ml

## N=C(NCCCCCCNC(=N)NC(=N)Nc1ccc(Cl)cc1)NC(=N)Nc1ccc(Cl)cc1 [CHLORHEXIDINE]
[4]
  Activity: 7 log10CFU/ml
[5]
  inhibition: Active
[6]
  Activity: inactive
[7]
  Activity: 0 CFU/ml
[8]
  Activity: 1.3 ×10⁶ CFU/ml
[9]
  Activity: Active
[11]
  Activity: Active
[12]
  Activity: 4 ×10³ CFU/ml
[13]
  Activity: Active
[14]
  inhibition: Active
[15]
  Activity: 0 CFU/ml
